Source: US20060122275A1, “Agentfor reducing side effects of diclofenac” (priority 2002, published 2006)

Tests used:
[1] = target: T1, EP1 receptor (Homo sapiens, UniProt P34995); settings: stated in words, no test described; cited from earlier work
T1 sequence (P34995 1-402): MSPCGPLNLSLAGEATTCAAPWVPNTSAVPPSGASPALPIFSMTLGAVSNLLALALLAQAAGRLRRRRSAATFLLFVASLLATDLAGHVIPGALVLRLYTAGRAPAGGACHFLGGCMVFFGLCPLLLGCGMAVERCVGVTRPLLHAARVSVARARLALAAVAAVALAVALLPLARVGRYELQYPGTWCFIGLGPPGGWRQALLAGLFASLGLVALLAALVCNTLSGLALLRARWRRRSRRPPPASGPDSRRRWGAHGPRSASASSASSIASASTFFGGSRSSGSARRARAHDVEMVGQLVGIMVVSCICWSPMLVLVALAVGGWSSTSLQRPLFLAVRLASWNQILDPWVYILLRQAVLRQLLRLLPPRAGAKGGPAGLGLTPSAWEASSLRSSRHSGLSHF

[2] = target: T2, EP3 receptor (Homo sapiens, UniProt P43115); settings: stated in words, no test described; cited from earlier work
T2 sequence (P43115 1-390): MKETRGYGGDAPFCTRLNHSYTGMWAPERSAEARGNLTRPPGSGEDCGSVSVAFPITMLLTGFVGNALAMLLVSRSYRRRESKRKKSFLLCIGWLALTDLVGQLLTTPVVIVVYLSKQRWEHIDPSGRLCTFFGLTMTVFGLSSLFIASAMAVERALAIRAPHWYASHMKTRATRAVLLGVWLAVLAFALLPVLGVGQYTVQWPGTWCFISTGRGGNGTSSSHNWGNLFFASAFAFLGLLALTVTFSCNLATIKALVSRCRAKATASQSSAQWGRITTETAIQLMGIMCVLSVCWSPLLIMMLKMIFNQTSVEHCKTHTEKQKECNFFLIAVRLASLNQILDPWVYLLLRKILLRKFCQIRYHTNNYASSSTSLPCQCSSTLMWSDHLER

[3] = target: EP4 receptor (Homo sapiens, UniProt P35408); settings: stated in words, no test described; cited from earlier work
EP4 receptor, sequence (P35408 whole entry): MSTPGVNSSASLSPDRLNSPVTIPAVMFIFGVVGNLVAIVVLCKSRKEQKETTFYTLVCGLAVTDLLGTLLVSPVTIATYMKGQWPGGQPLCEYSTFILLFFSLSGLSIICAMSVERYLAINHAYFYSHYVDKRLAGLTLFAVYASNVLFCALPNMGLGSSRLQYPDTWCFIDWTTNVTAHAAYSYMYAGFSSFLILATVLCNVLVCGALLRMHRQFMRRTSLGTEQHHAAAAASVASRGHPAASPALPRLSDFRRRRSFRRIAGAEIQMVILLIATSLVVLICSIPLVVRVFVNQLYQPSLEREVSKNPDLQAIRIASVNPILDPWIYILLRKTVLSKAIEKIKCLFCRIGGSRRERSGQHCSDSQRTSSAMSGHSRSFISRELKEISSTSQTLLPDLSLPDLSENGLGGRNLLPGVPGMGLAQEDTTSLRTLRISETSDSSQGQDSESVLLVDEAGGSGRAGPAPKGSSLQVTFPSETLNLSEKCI

[4] = target: IP receptor (Homo sapiens, UniProt P43119); settings: stated in words, no test described; cited from earlier work
IP receptor, sequence (P43119 whole entry): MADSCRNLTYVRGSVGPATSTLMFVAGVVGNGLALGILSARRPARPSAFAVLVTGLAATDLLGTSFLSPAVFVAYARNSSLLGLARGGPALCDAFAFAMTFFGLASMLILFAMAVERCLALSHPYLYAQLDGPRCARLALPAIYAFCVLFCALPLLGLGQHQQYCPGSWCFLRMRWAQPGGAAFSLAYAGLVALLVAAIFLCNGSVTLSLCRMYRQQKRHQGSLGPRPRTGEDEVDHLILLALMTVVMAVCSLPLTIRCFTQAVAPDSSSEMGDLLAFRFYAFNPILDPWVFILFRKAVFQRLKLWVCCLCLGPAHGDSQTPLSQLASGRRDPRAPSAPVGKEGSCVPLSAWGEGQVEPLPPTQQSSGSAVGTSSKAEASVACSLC

[5] = test system: Mycobacterium butyricum-induced inflammation, squeaking reaction; assay: Analgesic effect in inflammation model (squeaking reaction); format: in vivo, Lew/Crj line male rats; settings: OU administered vs OU un-administered group
Protocol: After measuring body weight of Lew/Crj line male rats, Mycobacterium butyricum cells suspended in liquid paraffin was administered by intracutaneous injection into the sole of left-side hind leg of each animal, under ether anesthesia at a dose of 0.1 ml/animal, thereby inducing inflammation. Also, this day was used as the 1st day of the inflammation induction treatment. […] Also, they were fasted for 16 to 24 hours under free water taking from the previous day of the measurement. […] A rat which was squeaking reaction-negative once or more by the 4 times of judgment after the sample liquid administration was judged analgesic effect-positive, and efficacy ratio (the number of animals having analgesic effect/the number of tested animals) was calculated. In addition, ulcer inhibition ratio was calculated in the same manner as described in (1).

[6] = test system: gastrointestinal mucous membrane; settings: stated in words, no test described; cited from earlier work
[7] = test system: acid secretion; settings: stated in words, no test described; cited from earlier work
[8] = test system: glycerol-induced nephropathy; assay: Effect of ornoprostil on glycerol-induced nephropathy; format: in vivo, SPF/Crj line male rats; settings: serum 48 hours after glycerol, rats
Protocol: SPF/Crj line male rats (9 week-old) were measured for their body weight and then divided into groups in such a manner that average of body weights of respective groups became almost uniform. A 50% glycerol solution (medium: physiological saline) (10 ml/kg) was administered by subcutaneous injection to each rat which had been abstained from water for 48 hours (±2 hours) but under feeding, and about 1.5 ml of blood was collected 48 hours thereafter from jugular vein under ether anesthesia. […] Water was provided 2 hours after the glycerol administration. The thus collected blood was centrifuged (about 4° C., 3,000 rpm, 15 minutes) to obtain serum. The thus obtained serum was subjected to the measurement of […] (to be referred to as UN) (urease-G1DH method) and creatinine (to be referred to as CRE) (creatininase-F-DAOS method) using a biochemical automatic analyzer (AU 400 (trade name), Olympus Optical).

[9] = GC (subcutaneous) + OU (3 μg) oral
[10] = GC (subcutaneous) + OU (10 μg) oral

Compound | Affinity for EP1 receptor [1] | Affinity for EP3 receptor [2] | Affinity for EP4 receptor [3] | Affinity for IP receptor [4] | Influence of OU administration upon the analgesic effect of NSAID [5] | Site protection activity [6] | Acid secretion inhibitory activity [7] | CRE [8, 9] [mg/dL] | UN [8, 9] [mg/dL] | CRE [8, 10] [mg/dL] | UN [8, 10] [mg/dL]
CCCCC(C)(O)C/C=C/[C@H]1[C@H](O)CC(=O)[C@@H]1CCCCCCC(=O)O (mixture of isomers) [misoprostol active body] | weak | strong | strong | hardly has affinity | – | – | – | – | – | – | –
CCCC[C@H](C)C[C@H](O)/C=C/[C@H]1[C@H](O)CC(=O)[C@@H]1CC(=O)CCCCC(=O)OC [ornoprostil, 17S,20-dimethyl-6-oxo-prostaglandin E1 methyl ester] | – | – | – | – | did not exert influence | strong | weak | 1.38 | 89.7 | 1.03 | 79.9
